Consider three substances from patent US20130064859A1, “COMBINATORIAL VITAMIN D AND PROBIOTIC THERAPY FOR INFLAMMATORY BOWEL DISEASE” (priority 2011, published 2013).

One assay concerns CD4+Foxp3+ T cells. As to the kind of experiment: mouse DC / CD4+ T cell co-culture, Foxp3+ Treg induction. The conditions noted are these: FIG. 6B. In kind it is cell-based, mice. As to the method:
In a particular example of the method of paragraph, mouse dendritic cells (DCs) are treated with PSA or PSA and vitamin D metabolite for 16-18 hrs, washed and co-cultured with naïve CD4+ T cells. After 4 days, cells were collected and stained for Foxp3. Percentage of Foxp3+ CD4+ T cells were determined by flow cytometry.
(§1) (A) Mouse DCs were stimulated with PSA (or PBS control), and Cyp27b1 transcript levels were measured by qRT-PCR. PSA induces the expression of the vitamin D-activating enzyme from WT, but not TLR2−/− DCs. (B) Mouse DCs were treated with PSA, washed and co-cultured with naïve CD4+ T cells. After 4 days, PSA increased Foxp3+ Treg proportions (see % in box). The vitamin D metabolite 25D augmented PSA-induced Tregs. (C) Human monocytes were treated with PSA or vehicle, washed and co-cultured with CD4+ T cells from PBMCs of the same donor. The MFI for Foxp3 among CD4+CD25+ T cells is shown with or without TGFβ. Collectively, we propose a model whereby PSA signals through TLR2 on DCs to induce expression of Cyp27b1, which converts 25D to 1,25D. The vitamin D receptor (VDR) in T cells responds to 1,25 D, and along with other PSA-specific signals, mediated the development of Treg cells (see diagram in FIG. 1).
(§2) Vitamin D enhances PSA-mediated induction of mouse and human Tregs. […]

In assay [1] the test system is Foxp3 expression in human Tregs. As to the kind of experiment: human monocyte / CD4+ T cell co-culture, Foxp3 MFI. In kind it is cell-based. The conditions noted are these: FIG. 6C. As to the method:
In a particular example of the method of paragraph, in vitro, human monocytes are treated with PSA or vehicle for 16-18 hrs, washed and co-cultured with CD4+ T cells from PBMCs of the same donor with or without TGFb. After 2 days, cells were collected and stained for Foxp3. MFI of Foxp3 among CD4+CD25+ T cells was determined by flow cytometry.
as §1, §2

The next assay deals with Cyp27b1. As to the kind of experiment: qRT-PCR of Cyp27b1 in bone marrow-derived dendritic cells treated with PSA. In kind it is cell-based, mice. The conditions noted are these: FIG. 6A. As to the method: as §1
Vitamin D enhances PSA-mediated induction of mouse and human Tregs. As outlined above, the ability of PSA to protect against IBD in mice involves the gut-specific conversion of CD4+ cell into IL-10-secreting Foxp3+ Tregs. We hypothesize that vitamin D may play a pivotal role in this process, given our novel finding that PSA induces the vitamin D-activating machinery in mice (see FIG. 5C). […]
On the technique in general: In qPCR the cycle at which signal appears reflects the starting amount.

The subject of a further assay is TNBS colitis. As to the kind of experiment: TNBS experimental colitis in mice treated with PSA. In kind it is in vivo. The conditions noted are these: for IL-10 expression in MLNs (qRT-PCR) / IL-17 levels in MLNs (qRT-PCR): FIG. 3C. As to the method: (§3) (A) Mice were treated with PSA or PBS. Analysis of the percentage of Foxp3+ cells within the CD4+CD25+ population in the MLNs is shown, indicated by the numbers in the top right quadrant. (B) CD4+CD25+ cells were purified from the MLNs of colitic PBS or PSA-treated mice and incubated with CFSE-pulsed CD4+CD25-responder cells in an in vitro suppression assay. Numbers indicate the percentage of cells undergoing at least one cellular division at 2 different ratios of effector T cells (Teff) and regulatory T cells (Treg). Top panels show results from healthy mice (−TNBS). (C) Disease scores for mice pre- and post-treated with PSA during TNBS colitis were assessed by a blinded pathologist. P values determined by a two-tailed Mann-Whitney U-test. **p value of <0.01. (D) Colons from mice were fixed, sectioned and stained with H&E to determine disease severity. Representative sections are shown.
(A) C57B1/6 WT or TLR2−/− animals were gavaged with purified PSA (or PBS) prior to TNBS administration. 5-6 days after onset of TNBS colitis, colons of animals were fixed, sectioned and H&E stained. Representative histological sections are shown. […] Each symbol represents a separate animal. *p value of <0.05. NS, not significant. (C) RNA was extracted from the MLNs of indicated mice either treated with PBS or PSA, and the expression levels of IL-10 and IL-17A were assayed by qRT-PCR. (D) Percentages of CD4+CD25+Foxp3+ T cells in the MLNs of TLR2−/−mice treated with PBS or PSA. Plots are gated on CD4+ T cells. Note: PSA increases CD4+CD25+Foxp3+ Treg proportions in WT mice by ˜25%.
B. fragilis induces Tregs that prevent and cure experimental IBD. Maintenance of homeostasis toward the intestinal microbial milieu is critical to the preservation of health, and defects in mucosal tolerance lead to disorders such as IBD. In animal models of IBD, intestinal inflammation is suppressed by various subsets of regulatory T cells (Tregs). Tregs emerge from the thymus and are marked by expression of CD4, CD25 and the transcription factor Foxp3 (Forkhead Box transcription factor for Treg differentiation). We have recently reported that the prominent human commensal, B. fragilis, directs the development of Foxp3+ Tregs in the gut during protection from experimental colitis in animal models. […] The Mazmanian laboratory employs 2 models of experimental colitis: 1) the T cell transfer model whereby various T cell subsets are transferred into RAG−/− animals allowing for the functional study of both pro- and anti-inflammatory T cells; 2) the TNBS (2,4,6-trinitrobenzene sulfonic acid) model, where rectal treatment of animals with an immunogenic chemical results in gut inflammation.
(§4) Here, we present data from the TNBS model, representative of results similar to the T cell transfer model. […] During protection from colitis (TNBS+PSA), PSA increases in-the percentage of Foxp3+ cells within the CD4+CD25+ compartment of the MLNs. […] The suppressive capacity of Tregs during PSA-mediated protection from intestinal inflammation was determined by in vitro suppression assays.
To examine if PSA can prevent and cure established colitis, animals were induced for TNBS colitis, and groups were either treated with vehicle (TNBS+PBS) or PSA either: 1) prior to disease induction (pre-TNBS+PSA) or 2) following rectal TNBS administration (post-TNBS+PSA).
PSA protection from experimental IBD requires TLR2 signaling. Multiple studies have implicated TLR signaling by innate immune cells during inflammatory disease. […] Wild-type (WT) or TLR2−/− animals were orally treated with PSA or PBS prior to induction of TNBS colitis. […] In contrast, TLR2−/− mice treated with PSA had marked inflammation including thickening of the mucosa, infiltrating leukocytes and crypt loss (FIG. 3A). […] As previously reported, WT animals were protected from colitis by PSA.

Assay [2] deals with proliferation of CD4+CD25- responder T cells. As to the kind of experiment: in vitro suppression assay with CD4+CD25+ Tregs from MLNs of treated mice. In kind it is cell-based. The conditions noted are these: Tregs from PSA fed mice (TNBS+PSA) vs untreated animals, FIG. 2B. As to the method: as §3, §4
The mark [3] stands for this setting: PSA following the onset of disease, data not shown.

Turning to “25-hydroxyvitamin D [25D, reference compound]”, in the assay with CD4+Foxp3+ T cells (co-treatment of WT BMDCs with PSA and 25D), the “effect on PSA-induced increase of CD4+Foxp3+ T cells” value was “further enhanced”.

TGFβ [reference compound]: in assay [1] (co-culture with or without TGFβ), the “effect on PSA-induced Tregs” value is on record as “does not further enhance”.

Take polysaccharide A [PSA]: the “induction of Cyp27b1 expression” value with Cyp27b1 (DCs from TLR2-/- mice) is “greatly diminished”; in the assay on Cyp27b1 (WT BMDC, PSA vs PBS control), 5 fold. Also, in the assay with CD4+Foxp3+ T cells (WT BMDCs treated with PSA, over media controls), the “proportions of CD4+Foxp3+ T cells in culture” value is listed as “increases”. Further, in assay [1] (human monocytes treated with purified PSA or vehicle), the “Foxp3 expression in human Tregs (MFI among CD4+CD25+ T cells)” value is recorded as “promotes Foxp3 expression”. Further, the colitis disease score entry in the assay with TNBS colitis (PSA following rectal TNBS administration (post-TNBS+PSA)) and in the assay with TNBS colitis (PSA prior to disease induction (pre-TNBS+PSA)) was “prevented the development of disease with equal efficacy” each time. For the same substance, in the assay on TNBS colitis (setting [3]), the “Foxp3 expression by gut CD4+ T cells” value is listed as “increased”. The “IL-10 expression by gut CD4+ T cells” value with TNBS colitis (setting [3]) is recorded as “increased”. Moreover, the “absolute number of CD4+CD25+Foxp3+ cells in the MLNs” value with TNBS colitis (PSA-treated vs PBS or non-colitic animals, data not shown) is “significantly higher”. Also, the “IL-10 expression in MLNs (qRT-PCR)” value in the assay with TNBS colitis (TLR2-/- animals) is recorded as “no longer up-regulated”; with TNBS colitis (WT animals) it was “induced”. For the same substance, the “protection from colitis (colitis score)” value in the assay with TNBS colitis (TLR2-/- animals, oral PSA prior to TNBS vs PBS, FIG. 3B) was “not protected”. For the same substance, the “percentage of CD4+Foxp3+ Tregs” value with TNBS colitis (TLR2-/- animals, relative to PBS controls, FIG. 3D) was “no differences”. Besides, the “IL-17 levels in MLNs (qRT-PCR)” value was “increased” with TNBS colitis (TLR2-/- mice, PSA compared to PBS) and “Suppression” in the assay on TNBS colitis (WT animals). In addition, in the assay with TNBS colitis (TNBS+PSA vs TNBS+PBS, FIG. 2A), the “percentage of Foxp3+ cells within the CD4+CD25+ compartment of the MLNs” value was “increases”. In addition, the “protection from colitis (histopathology, colitis score)” value with TNBS colitis (WT animals, oral PSA prior to TNBS, FIG. 3A/B) is “protected from disease”. In addition, the “increase of CD4+CD25+Foxp3+ Treg proportions” value in the assay on TNBS colitis (WT mice, MLNs, FIG. 3 note) was roughly 25%. The “pro-inflammatory Th17 cells” value with TNBS colitis (during both protection and cure of colitis, data not shown) was “significant decrease”. The “suppression of T cell proliferation by Tregs from MLNs” value in assay [2] is on record as “suppressed T cell proliferation to a significantly higher level”.
